The structures appear in SMILES notation. “Also recorded” adds a separate entry of the source. Where only a bound is given, the exact number is not on record here.

This is an account of results in patent US11541051B2, “Compositions and methods for treating CDK4/6-mediated cancer” (Icahn School of Medicine at Mount Sinai, priority 2016, dated 2023).

Assay type in all cases: cell-based
Assay [1] relates to CDK4/6. As to the kind of experiment: Characterization of CDK4/6 degraders/disruptors in various breast cancer and melanoma cells (summary, Examples 12 and 13). The procedure:
Specific exemplary abemaciclib-, ribociclib-, and palbociclib-based CDK4/6 degraders/disruptors were characterized in various different breast cancer and melanoma cells (Examples 12 and 13, FIGS. 10-23). […] This efficacy in suppressing CDK4/6 expression and CDK4/6 activity correlated with efficacy in inhibiting cancer cell proliferation.
(§1) Protein concentrations were determined by BCA from cell lysates and equal amounts of protein are loaded to a Bis-Tris 4-12% gel. Gels were run at 80 V for 4 h using 1× running buffer (25 mM Tris, pH 8.3, […] glycine, 0.1% SDS). Proteins were transferred to a nitrocellulose membrane for 2 h at 100 V using transfer buffer (25 mM Tris, pH 8.3, […] glycine, 20% methanol). Ponceau S staining (0.1% Ponceau S, 1% acetic acid) was used to confirm transfer of proteins to the membrane followed by blocking of the membrane for 30 min at room temperature using blocking buffer (5% dry nonfat milk, 0.1% Tween, 0.02% sodium azide in TBS). The blocked membrane is incubated with primary antibodies (1:1000 dilution) in blocking buffer at 4° C. overnight. When primary phosphor-antibodies were used, then the membrane is incubated with 5% BSA instead of milk. The membrane was washed three times, 10 min each, with wash buffer (0.1% Tween in TBS) followed by incubation with secondary HRP conjugated antibody (1:5000 dilution) in 2.5% dry nonfat milk, 0.1% Tween in TBS for 1 h at room temperature. The membrane was washed three times, 10 min each, with wash buffer (0.1% Tween in TBS). Membranes are incubated with ECL for 1 min and proteins are detected after exposure to a blue autoradiographic film.

For assay [2], the system named is CDK4/6. As to the kind of experiment: Western blot of CDK4 and CDK6 in MCF7 breast cancer cells treated with degraders (Example 12, FIG. 10 A). The note with it: 1 or 5 μM, 24 h. The procedure: (§2) Breast cancer cell lines (MCF7, T47D, and ZR-75-1) and melanoma cell lines (A375, SK-MEL-2, SK-MEL-30, and WM1382) were cultured in the presence of DMEM or RPMI supplemented with 10% FBS in the presence of penicillin and streptomycin.
as §1
(§3) MCF7 breast cancer cells were treated with 1 or 5 μM XY019-095, XY019-098, XY019-0100, XY019-105A, XY019-105B, XY019-106, or XY019-108 for 24 h, then lysed and immunoblotted with antibodies to CDK4, CDK6, and actin (FIG. 10, panel A). […] T47D breast cancer cells were treated with 0.1, 0.3, 1, 3, 10, or 30 μM XY019-106 for 24 h, then lysed and immunoblotted with antibodies to phospho-Rb (pRB), CDK4, and actin (FIG. 10, panel B).

Assay [3] has as its system CDK4/6. As to the kind of experiment: Western blot of CDK4, CDK6 and phospho-Rb in SK-MEL-2 or A375 melanoma cells treated with degraders (Example 12, FIG. 11). The note with it: SK-MEL-2 or A375 cells; 1 or 3 μM; 24 h. The procedure: as §2
as §1, with “The membrane was washed three times, 10 min each, with wash buffer (0.1% Tween in TBS) followed by incubation with secondary HRP conjugated antibody (1:5000 dilution) in 2.5% dry nonfat milk, 0.1% Tween in TBS for 1 h at room temperature. The membrane was washed three times, 10 min each, with wash buffer (0.1% Tween in TBS).” left out, “film. […]” for “film.”

The subject of assay [4] is CDK4/6. As to the kind of experiment: Western blot of CDK4, CDK6 and phospho-Rb in A375 melanoma cells treated with degraders (Example 12, FIGS. 12, 13, 16, 18). The note with it: 24 h. The procedure: as §2, §1
A375 melanoma cells (FIG. 13) were treated with 1 or 3 μM Ribociclib (RB), YX030-126, YX030-108, YX030-107, YX030-086, YX030-085 or XY028-133 for 24 h, then lysed and immunoblotted with antibodies to CDK4, CDK6, cyclin A, PLK1, phospho-Rb (pRb), and actin.
A375 melanoma cells (FIG. 16, panel A) were treated with 0.3 or 1 μM XY028-140, YX039-65, YX039-48, YX039-123, YX039-56, YX039-124 or YX039-147 for 24 h. A375 melanoma cells were treated with 1 or 3 μM XY028-140, YX039-56, YX039-65 or XY028-133 (FIG. 16, panel B). Cells were lysed and immunoblotted with antibodies to phospho-Rb (pRb), total Rb, PLK1, cyclin A, CDK4, CDK6, and actin.
A375 melanoma cells (FIG. 18) were treated with 1 or 3 μM XY028-133, YX044-18, YX044-22, XY028-140, YX044-19 or YX044-38 for 24 h, then lysed and immunoblotted with antibodies to phospho-Rb (pRb), total Rb, PLK1, cyclin A, CDK4, CDK6, and actin.

For assay [5], the target named is T1, CDK4/6 (Homo sapiens, UniProt P11802).
T1 construct: endogenous in cells; host or cells: MCF7, T47D, ZR-75-1 (breast cancer); A375, SK-MEL-2, SK-MEL-30, WM1382 (melanoma)
As to the kind of experiment: Western blot of CDK4/6 and phospho-Rb in T47D breast cancer cells treated with degraders (Example 12, FIGS. 10 B, 17, 19). The note with it: 24 h. The procedure:
as §2, §1, §3
(§4) T47D breast cancer cells (FIG. 17) were treated with 0.3 or 1 μM XY028-140, YX039-48, YX039-123, YX039-56, YX039-124, YX039-65, YX039-147 or YX039-74 for 24 h, then lysed and immunoblotted with antibodies to phospho-Rb (pRb), total Rb, PLK1, cyclin A, CDK4, CDK6, and actin.
(§5) T47D breast cancer cells (FIG. 19) were treated with 0.3 or 1 μM XY028-133, YX044-18, YX044-22, XY028-140, YX044-19 or YX044-38 for 24 h, then lysed and immunoblotted with antibodies to phospho-Rb (pRb), total Rb, PLK1, cyclin A, CDK4, CDK6, and actin.

In assay [6] the test system is CDK4/6. The assay is described as above. To be noted: concentrations as high as 30 μM, 24 h. The procedure: as §2, §1, §3, §4, §5
Assay [7] relates to A375 melanoma cells. As to the kind of experiment: Bright field imaging of A375 melanoma cell proliferation (Example 13, FIG. 20). The note with it: 1 or 2 μM, 7 days.
Assay [8] relates to A375 melanoma cells. As to the kind of experiment: Crystal violet staining (clonogenic assay) of A375 melanoma cells (Example 13, FIG. 21). The note with it: 0.03-3 μM, 11 days. The procedure: Cells were cultured for 7-11 days in the presence of different compounds. Media with compound was replenished every two days. At the end of the experiment, media was aspirated and viable cells were stained with 0.5% crystal violet dye.

For assay [9], the system named is V5-tagged CDK4 or V5-tagged CDK6. As to the kind of experiment: Western blot of V5-tagged CDK4 or CDK6 ectopically expressed in 293H cells (Example 8). The note with it: 1, 3 or 10 μM, 24 h.
Method: Protein concentrations were determined by BCA from cell lysates and equal amounts of protein are loaded to a Bis-Tris 4-12% gel. Gels were run at 80 V for 4 h using 1× running buffer (25 mM Tris, pH 8.3, 1.92 M glycine, 0.1% SDS). Proteins were transferred to a nitrocellulose membrane for 2 h at 100 V using transfer buffer (25 mM Tris, pH 8.3, 1.92 M glycine, 20% methanol). Ponceau S staining (0.1% Ponceau S, 1% acetic acid) was used to confirm transfer of proteins to the membrane followed by blocking of the membrane for 30 min at room temperature using blocking buffer (5% dry nonfat milk, 0.1% Tween, 0.02% sodium azide in TBS). The blocked membrane is incubated with primary antibodies (1:1000 dilution) in blocking buffer at 4° C. overnight. When primary phosphor-antibodies were used, then the membrane is incubated with 5% BSA instead of milk. The membrane was washed three times, 10 min each, with wash buffer (0.1% Tween in TBS) followed by incubation with secondary HRP conjugated antibody (1:5000 dilution) in 2.5% dry nonfat milk, 0.1% Tween in TBS for 1 h at room temperature. The membrane was washed three times, 10 min each, with wash buffer (0.1% Tween in TBS). Membranes are incubated with ECL for 1 min and proteins are detected after exposure to a blue autoradiographic film.

T1 sequence (P11802 2-303): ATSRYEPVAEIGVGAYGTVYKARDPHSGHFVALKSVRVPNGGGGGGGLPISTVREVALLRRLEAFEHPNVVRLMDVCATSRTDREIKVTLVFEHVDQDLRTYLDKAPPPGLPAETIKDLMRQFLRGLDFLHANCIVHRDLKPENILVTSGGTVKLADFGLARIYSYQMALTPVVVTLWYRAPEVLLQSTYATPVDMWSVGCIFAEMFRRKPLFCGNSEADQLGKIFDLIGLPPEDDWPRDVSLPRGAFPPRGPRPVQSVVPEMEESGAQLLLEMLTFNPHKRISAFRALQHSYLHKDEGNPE

Regarding `CC(=O)c1c(C)c2cnc(Nc3ccc(N4CCN(C(=O)COCCOCCOCC(=O)N[C@H](C(=O)N5C[C@H](O)C[C@H]5C(=O)NCc5ccc(-c6scnc6C)cc5)C(C)(C)C)CC4)cn3)nc2n(C2CCCC2)c1=O` [XY019-098, (2S,4R)-1-((S)-14-(4-(6-((6-acetyl-8-cyclopentyl-5-methyl-7-oxo-7,8-dihydropyrido[2,3-d]pyrimidin-2-yl)amino)pyridin-3-yl)piperazin-1-yl)-2-(tert-butyl)-4,14-dioxo-6,9,12-trioxa-3-azatetradecanoyl)-4-hydroxy-N-(4-(4-methylthiazol-5-yl)benzyl)pyrrolidine-2-carboxamide], in assay [1], the “suppression of both CDK4/6 expression and CDK4/6 activity (summary)” value (“suppression … (summary)” for short) is “especially effective in suppressing both CDK4/6 expression and CDK4/6 activity”. In assay [2], the “suppression of CDK4/6 expression” value was “especially effective in suppressing CDK4/6 expression even at 1 μM”.

As for `CC(=O)c1c(C)c2cnc(Nc3ccc(N4CCN(C(=O)CCCCCCC(=O)N[C@H](C(=O)N5C[C@H](O)C[C@H]5C(=O)NCc5ccc(-c6scnc6C)cc5)C(C)(C)C)CC4)cn3)nc2n(C2CCCC2)c1=O` [XY019-106, (2S,4R)-1-((S)-2-(8-(4-(6-((6-acetyl-8-cyclopentyl-5-methyl-7-oxo-7,8-dihydropyrido[2,3-d]pyrimidin-2-yl)amino)pyridin-3-yl)piperazin-1-yl)-8-oxooctanamido)-3,3-dimethylbutanoyl)-4-hydroxy-N-(4-(4-methylthiazol-5-yl)benzyl)pyrrolidine-2-carboxamide], the “suppression … (summary)” value in assay [1] is “especially effective in suppressing both CDK4/6 expression and CDK4/6 activity”. The “efficacy in inhibiting both CDK4/6 expression and CDK4/6 activity (decreased Rb phosphorylation)” value in assay [3] was “efficacy of CDK4/6 degraders/disruptors, particularly XY019-106 and XY028-003”; in assay [4] (1 or 3 μM) it was “efficacy of CDK4/6 degraders, particularly XY028-133, XY028-140, XY019-106 and XY028-003”. Moreover, the “suppression of CDK4/6 expression” value in assay [2] is reported as “especially effective in suppressing CDK4/6 expression even at 1 μM”. For the same compound, in assay [5] (0.1-30 μM), the “suppression of CDK4 expression and inhibition of CDK4 activity (Rb phosphorylation)” value was “both suppresses CDK4 expression and inhibit CDK4 activity”. Further, the “concentrations with significant effects on CDK4 expression and Rb phosphorylation” value in assay [5] is no less than 0.3 µM. In addition, in assay [6], the “inhibition of Rb phosphorylation at high concentrations” value is on record as “inhibited Rb phosphorylation even when administered at high concentrations”.

With `CC(=O)c1c(C)c2cnc(Nc3ccc(N4CCN(C(=O)CCOCCOCCOCCNc5cccc6c5C(=O)N(C5CCC(=O)NC5=O)C6=O)CC4)cn3)nc2n(C2CCCC2)c1=O` (centres unmarked) [XY019-108, 4-((2-(2-(2-(3-(4-(6-((6-acetyl-8-cyclopentyl-5-methyl-7-oxo-7,8-dihydropyrido[2,3-d]pyrimidin-2-yl)amino)pyridin-3-yl)piperazin-1-yl)-3-oxopropoxy)ethoxy)ethoxy)ethyl)amino)-2-(2,6-dioxopiperidin-3-yl)isoindoline-1,3-dione], in assay [1], the “suppression … (summary)” value was “especially effective in suppressing both CDK4/6 expression and CDK4/6 activity”. For the same compound, the “suppression of CDK4/6 expression” value in assay [2] was “especially effective in suppressing CDK4/6 expression even at 1 μM”.

With `CC(=O)c1c(C)c2cnc(Nc3ccc(N4CCN(C(=O)CCOCCC(=O)N[C@H](C(=O)N5C[C@H](O)C[C@H]5C(=O)NCc5ccc(-c6scnc6C)cc5)C(C)(C)C)CC4)cn3)nc2n(C2CCCC2)c1=O` [XY028-003, (2S,4R)-1-((S)-2-(3-(3-(4-(6-((6-acetyl-8-cyclopentyl-5-methyl-7-oxo-7,8-dihydropyrido[2,3-d]pyrimidin-2-yl)amino)pyridin-3-yl)piperazin-1-yl)-3-oxopropoxy)propanamido)-3,3-dimethylbutanoyl)-4-hydroxy-N-(4-(4-methylthiazol-5-yl)benzyl)pyrrolidine-2-carboxamide], the “suppression … (summary)” value in assay [1] was “especially effective in suppressing both CDK4/6 expression and CDK4/6 activity”. For the same compound, the “efficacy in inhibiting both CDK4/6 expression and CDK4/6 activity (decreased Rb phosphorylation)” value in assay [3] was “efficacy of CDK4/6 degraders/disruptors, particularly XY019-106 and XY028-003”; in [4] (1 or 3 μM), “efficacy of CDK4/6 degraders, particularly XY028-133, XY028-140, XY019-106 and XY028-003”.

With `CC(=O)c1c(C)c2cnc(Nc3ccc(N4CCN(C(=O)CCCCCC(=O)N[C@H](C(=O)N5C[C@H](O)C[C@H]5C(=O)NCc5ccc(-c6scnc6C)cc5)C(C)(C)C)CC4)cn3)nc2n(C2CCCC2)c1=O` [XY028-133, (2S,4R)-1-((S)-2-(7-(4-(6-((6-acetyl-8-cyclopentyl-5-methyl-7-oxo-7,8-dihydropyrido[2,3-d]pyrimidin-2-yl)amino)pyridin-3-yl)piperazin-1-yl)-7-oxoheptanamido)-3,3-dimethylbutanoyl)-4-hydroxy-N-(4-(4-methylthiazol-5-yl)benzyl)pyrrolidine-2-carboxamide], the “suppression … (summary)” value in [1] is “especially effective in suppressing both CDK4/6 expression and CDK4/6 activity”. Moreover, in assay [7], the “inhibition of cancer cell proliferation compared with palbociclib (bright field imaging)” value is “more effective in inhibiting cancer cell proliferation than palbociclib at the same concentration”. In addition, the “efficacy in inhibiting both CDK4/6 expression and CDK4/6 activity (decreased Rb phosphorylation)” value was “efficacy of CDK4/6 degraders, particularly XY028-133” in [4] (0.3 or 1 μM (FIG. 16 A), 1 or 3 μM (FIG. 16 B)); “efficacy of CDK4/6 degraders, particularly XY028-133, XY028-140, XY019-106 and XY028-003; also recorded: efficacy of CDK4/6 degraders, particularly XY028-133 and YX044-18” in [4] (1 or 3 μM). Besides, the “inhibition of cancer cell proliferation compared with palbociclib (crystal violet staining)” value in assay [8] is “more effective in inhibiting cancer cell proliferation than palbociclib at 1 and 3 μM”.

As to `CN(C)C(=O)c1cc2cnc(Nc3ccc(N4CCNCC4)cn3)nc2n1C1CCCC1` [ribociclib], in assay [9], the “expression of V5-tagged CDK4 and CDK6” value was “upregulated the expression of V5-tagged CDK4 and CDK6”.
